Results taken from US9248163B2, “Insulin-like growth factor binding protein 7 for treatment of cancer” (University of Massachusetts, priority 2007, dated 2016).

Experiments:
[1] = test system: IGFBP7 expression in melanoma cell lines; assay: IGFBP7 mRNA (qRT-PCR) in melanoma cell lines after 5-aza treatment; assay type: cell-based, human; conditions: 10 μM, 48 hours
Procedure: Total RNA was isolated using TRIZOLTM (Invitrogen) 7 days after retroviral transduction and puromycin selection. Reverse transcription was performed using SuperScriptTM II Reverse Transcriptase (Invitrogen) as per the manufacturer's instructions, followed by quantitative real-time PCR using Platinum SYBRTM Green qPCR SuperMix-UDG with Rox (Invitrogen). Bisulfite modification was carried out essentially as described (Frommer et al., 1992, Proc. Natl. Acad. Sci. USA, 89:1827-31), except that hydroquinone was used at a concentration of 125 mM during bisulfite treatment (carried out in the dark) and DNA was desalted on […] columns (Qiagen) after the bisulfite reaction. Six clones were sequenced for each cell line or human tissue sample. For 5-aza-2'-deoxycytidine (5-aza) treatment, melanoma cell lines were treated with 10 μM 5-aza (Calbiochem) for 48 hours.

[2] = test system: NCI 60 panel of human cancer cell lines; assay: Growth inhibition of the NCI 60 panel cell lines by MEK inhibitor; assay type: cell-based
Procedure: The growth dependence of the above cell lines on the Ras-BRAF-MEK-Erk signaling pathway was also determined. 1.5×10^5 cells of each cell line were treated with 20 μM of the MEK inhibitor U0216 (Cell Signaling) for 24 hours, and growth of the cell lines was determined. U0216 inhibited growth in 11/11 (100%) of the cell lines that contained a BRAF mutation and 11/13 (84.6) of the cell lines that contained a RAS mutation. The one cell line that contained both a BRAF and a RAS mutation was susceptible to growth inhibition by U0216.

SK-MEL-28 cells = assay: Immunoblot analysis of SMARCB1, BNIP3L and activated caspase 3; assay type: cell-based, human; conditions: 24 hours, unlike rIGFBP7
Procedure: (§1) To prepare cell extracts, cells were lysed in Laemmli buffer; for phospho-proteins, cells were lysed in the presence of a phosphatase inhibitor cocktail (Sigma). To prepare conditioned media, cells were grown in Opti-MEM™ (Invitrogen) for 24 hours, and media was harvested and concentrated using Centricon™ plus 20 tubes (Millipore). Conditioned media was normalized to cell number prior to loading the gel. For the experiments shown in FIGS. 3D and 4C, rIGFBP7 was added to the culture medium at a concentration of 10 μg/ml. For the MEK/RAF inhibitor experiment of FIG. 4D, SK-MEL-28 cells were treated with 2 μg/ml or 10 μg/ml rIGFBP7, 20 μM or 40 μM of the MEK inhibitor PD98054 (Calbiochem), or 5 nM or 10 nM the RAF inhibitor GW5074 (Sigma) for 24 hours prior to harvesting cells. Proteins were resolved by SDS-PAGE and transferred to nitrocellulose. Blots were probed with the following antibodies: α-p16 (Abcam), α-acetylated H3K9 (Upstate), α-IGFBP7 (Santa Cruz), α-SMARCB1 (Abnova), α-BNIP3L (Proscience), α-BRAFV600E (Santa Cruz), α-cleaved caspase-3 p11 (Santa Cruz), α-β-actin (Sigma), α-phospho-ERK (Cell Signaling) or α-ERK (Cell Signaling).

[3] = test system: BRAF-MEK-ERK signaling in SK-MEL-28 cells; assay: Immunoblot analysis of BRAF-MEK-ERK signaling (phospho-ERK, activated MEK1/2, RKIP); assay type: cell-based, human; conditions: SK-MEL-28 cells, 24 hours; PD98054 20 or 40 μM, GW5074 5 or 10 nM
Procedure: as §1
To test this idea, rIGFBP7 was added to BRAFV600E-positive SK-MEL-28 melanoma cells, and the levels of total and activated ERK (phospho-ERK) were analyzed.

Nc1ncn([C@H]2C[C@H](O)[C@@H](CO)O2)c(=O)n1 [5-aza-2′-deoxycytidine]
IGFBP7 expression ([1]; BRAF/RAS-wild type cell lines): no effect
IGFBP7 expression ([1]; BRAFV600E- and NRASQ61R-positive cell lines): restored IGFBP7 expression

N#CC(=C(/N)Sc1ccccc1N)/C(C#N)=C(/N)Sc1ccccc1N [U0216]
cell lines in which growth was inhibited ([2]; cell lines that contained a BRAF mutation (11/11), 20 μM, 24 hours): 100%
cell lines in which growth was inhibited ([2]; cell lines that contained a RAS mutation (11/13), 20 μM, 24 hours): 84.6
cell lines susceptible to growth inhibition ([2]; cell lines without a BRAF or RAS mutation, 20 μM, 24 hours): 0/34
susceptibility to growth inhibition ([2]; one cell line with both a BRAF and a RAS mutation): susceptible

O=C1Nc2ccc(I)cc2/C1=C/c1cc(Br)c(O)c(Br)c1 [RAF inhibitor, reference compound]
BNIP3L levels and induction of apoptosis (SK-MEL-28 cells): did not increase BINP3L levels or efficiently induce apoptosis
BRAF-MEK-ERK signaling [3]: blocked BRAF-MEK-ERK signaling
